Experimental data from US12263177B2, “Biologically active ganoderma lucidum compounds and synthesis of anticancer derivatives; ergosterol peroxide probes for cellular localization” (priority 2019, dated 2025).
Read-outs that look alike come from different tables or passages of the source.

What was measured:
SUM-149 cells [1] = experiment: Invasion assay (Transwell, Matrigel); format: cell-based, human; settings: 72 h
Experimental: Previously, the anti-migratory activities of whole mushroom GLE in SUM-149 cells was reported. To investigate EP's effects on cell migration, Boyden chamber assays; while to investigate invasion, Transwell chambers were used. […] Furthermore, an additional decrease (43%) was seen when cells were treated with a non-lethal dose of 15 μM of EP (P<0.01) (FIG. 8B).
Cell migration and invasion were measured by using Corning® FluoroBlok™ Cell Culture Inserts and performing BD BioCoat Matrigel invasion assays (BD Biosciences, San José, Calif.) as described in [12, 14].

[2] = format: physicochemical; settings: 168 hr at RT
SUM-149 cells [3] = experiment: Reactive oxygen species (ROS) measurement, CellROX; format: cell-based, human
MDA-MB-231 = experiment: Cytotoxicity of EP probes via CTG assay; format: cell-based, human; settings: Homo sapiens, MDA-MB-231, 72 hr, read-out: MDA-MB231 EC50
Experimental: (§1) Both normal cell lines HMEC and BJ cells were also evaluated to determine therapeutic index.
(§2) The concentrations used were experimentally determined to ensure logarithmic growth during the duration of the experiment and prevent adverse effects on cell growth by DMSO exposure. The plates were incubated at 37° C. in 5% CO2 for 24 h before treatment. Stock solutions of test compounds (10 mM in DMSO) in nine 3-fold serial dilutions were dispensed via pintool (Biomek). The final concentration of DMSO was 0.3% (v/v) in each well. The plates were incubated for 72 h at 37° C. in 5% CO2 and then quenched with CellTiter-Glo® reagent (50 μL/well in 96-well plate, 30 μL/well in 384-well plate) at RT. The positive controls included staurosporine (10 μM), gambogic acid (10 μM), and a toxic quinoline generated in-house. Plates were then incubated at RT for 20 min and centrifuged at 1000 rpm for 1 min. The cytotoxicity assay was performed by using the CellTiterGlo Luminescent Cell Viability Assay kit (G7570, Promega, Madison, WI) according to the manufacturer's instructions. Luminescence was recorded in an Envision plate reader (Perkin Elmer).
(§3) For the CTG assay, 3 or 4 replicate assays were conducted for each experimental condition, and a minimum of 3 independent experiments were conducted for cellular assays. The mean luminescence of each experimental treatment group was normalized as a percentage of the mean intensity of untreated controls. EC50 values (μM) were calculated by Pipeline Pilot Software (Accelrys, Enterprise Platform, CA, USA). EC50 values (μM) from the viability assay were calculated from dose response curve-fitting via non-linear regression by using GraphPad Prism (Version 7.0 San Diego, CA).

SUM-149 cells [4] = experiment: Cell cycle assay; format: cell-based, human; settings: EP 20 μM, 48 h
Experimental: SUM-149 cells were treated for 48 h with EP, then collected and washed in 1×PBS. The cells (5×10^5) were fixed and permeabilized in 70% ethanol at −20° C. until further analysis. To measure the DNA content, the cells were washed and resuspended in 150 μL of PBS buffer then incubated in 100 μL of 100 μg/mL RNase A (MilliporeSigma, Burlington, MA) for 15 min at RT, then 250 μL of 50 μg/mL Propidium Iodide (MilliporeSigma) was added. Samples were incubated at RT for 10 min and analyzed on a BD FACS Canto II flow cytometer (BD Biosciences, San José, Calif.). Data were analyzed by using FlowJo software (V10, FlowJo LLC, Ashland, OR).

SUM-190 IBC cells = experiment: Cell viability assay (CellTiter-Glo or PI staining); format: cell-based; settings: SUM190; FIG. 4E
Experimental: (§4) Different concentrations of GLE-extracted bioactive chemical components were tested for 72-h treatment periods.
Either 1×10^3-4.8×10^3 or 4×10^2-1.2×10^3 cells were seeded to each well of 96- or 384-well white polystyrene flat-bottomed plates (3610 or 8804BC, Corning) in 100 μL or 30 μL media per well, respectively. The concentrations used were experimentally determined to ensure logarithmic growth during the duration of the experiment and prevent adverse effects on cell growth by DMSO exposure. The plates were incubated at 37° C. in 5% CO2 for 24 h before treatment. Stock solutions of test compounds (10 mM in DMSO) in nine 3-fold serial dilutions were dispensed via pintool (Biomek). The final concentration of DMSO was 0.3% (v/v) in each well. […] Luminescence was recorded in an Envision plate reader (Perkin Elmer).
as §3

HMEC = experiment: Cytotoxicity of EP probes via CTG assay, normal cells; format: cell-based; settings: Homo sapiens, HMEC, 72 hr
Experimental: as §1, §2, §3

SUM-149 cells [5] = experiment: Cell viability assay (CellTiter-Glo or PI staining); format: cell-based, human; settings: for EC50: Homo sapiens, read-out: EC50, SUM-149 cell viability
Experimental: as §4
Either 1×10^3-4.8×10^3 or 4×10^2-1.2×10^3 cells were seeded to each well of 96- or 384-well white polystyrene flat-bottomed plates (3610 or 8804BC, Corning) in 100 μL or 30 μL media per well, respectively. The concentrations used were experimentally determined to ensure logarithmic growth during the duration of the experiment and prevent adverse effects on cell growth by DMSO exposure. The plates were incubated at 37° C. in 5% CO2 for 24 h before treatment. Stock solutions of test compounds (10 mM in DMSO) in nine 3-fold serial dilutions were dispensed via pintool (Biomek). The final concentration of DMSO was 0.3% (v/v) in each well. The plates were incubated for 72 h at 37° C. in 5% CO2 and then quenched with CellTiter-Glo® reagent (50 μL/well in 96-well plate, 30 μL/well in 384-well plate) at RT. The positive controls included staurosporine (10 μM), gambogic acid (10 μM), and a toxic quinoline generated in-house. Plates were then incubated at RT for 20 min and centrifuged at 1000 rpm for 1 min. The cytotoxicity assay was performed by using the CellTiterGlo Luminescent Cell Viability Assay kit (G7570, Promega, Madison, WI) according to the manufacturer's instructions. Luminescence was recorded in an Envision plate reader (Perkin Elmer).
as §3

SUM-149 = experiment: Cytotoxicity of EP probes via CTG assay; format: cell-based, human; settings: Homo sapiens, SUM149, 72 hr
Experimental: as §1, §2, §3

T47D = experiment: Cytotoxicity of EP probes via CTG assay; format: cell-based; settings: Homo sapiens, T47D, 72 hr
Experimental: as §1, §2, §3

[6] = Incubation with NAC monitored by NMR and LC-MS; format: physicochemical; settings: DMSO, 24 h, 37° C.
Experimental: Live-cell CellROX® assays for oxidative stress detection were conducted to evaluate whether GA-01, ergosterol, 5-6-dihydroergosterol and EP trigger intrinsic apoptosis pathways by inducing ROS. […] Menadione or t-Butyl hydrogen peroxide (TBHP) were positive controls (FIGS. 7 and S5) and co-treated with N-acetyl cysteine (NAC) to confirm that the signal was due to ROS formation induced by the compound. […] Furthermore, the possibility of the endoperoxide motif to react with NAC, was assessed EP was incubated with NAC in DMSO for 24 h at 37° C. […] Thus, the ability of EP to induce ROS could potentially be via a different mechanism from that of TBHP in MCF-7 cells.

MDA-MB-231 cells = experiment: Reactive oxygen species (ROS) measurement, CellROX; format: cell-based, human; settings: EP 20 μM, vs vehicle
Solubility observations = format: physicochemical
Experimental: One of the liabilities with EP is sharing its core with cholesterol, an amphipathic molecule with part-water soluble, part-water insoluble character. Thus, while able to readily cross the cell membrane, the ability to deliver the pure compound faces challenges. EP's solubility properties are poor in DMSO or water unless warmed up to 30° C. However, in this report, EP's derivative, EP sulfonamide, was soluble at 10 mM in DMSO. Thus, the generation of a selective anti-cancer compound with greater potency than EP, and ample therapeutic window when compared to BJ normal cells, was accomplished.

[7] = test system: additional cancer cellular models; experiment: Cell viability assay, additional cancer models; format: cell-based
Excerpt: Therefore, EP exerts selective effects on cancer cell viability, similar to the effects obtained with whole mushroom extract (GLE), indicating an ample therapeutic window for this compound.

[8] = test system: AKT isoforms, BCL-XL, Cyclin D1, c-Myc, PARP in SUM-149 cells; experiment: Immunoblots of signaling proteins; format: cell-based, human
Excerpt: Studies that focus on drivers of cancer cell survival and invasion signaling show the important role of the AKT isoforms in breast cancer. AKT1 and AKT3 are associated with breast cancer invasion, and PTEN-deficient tumors depend on AKT2 for maintenance and survival. […] Regulation of AKT isoform expression by EP is extremely similar to what the inventors reported with whole mushroom GLE in the same breast cancer cell lines.
Because EP induced apoptosis, its effects on the expression on anti-apoptosis proteins BCL-2 and BCL-XL, which block the release of cytochrome C from the mitochondria were investigated. […] The apoptosis inducing effects of EP in SUM-149 cells were investigated by monitoring PARP cleavage.
Breast cancer cells treated with vehicle or EP were lysed, and equal total protein was resolved via SDS-PAGE and immunoblotted with indicated antibodies (Cell Signaling Technologies, Abcam, Sigma) as described previously.

CC(C)[C@@H](C)/C=C/[C@@H](C)[C@H]1CC[C@@H]2[C@]1(C)CC[C@H]1[C@]23C=C[C@]2(C[C@@H](O)CC[C@]12C)OO3 [EP, ergosterol peroxide]
invading cells (SUM-149 cells [1]; 10 μM): significant reduction
decrease in invasion (SUM-149 cells [1]; 15 μM): 43%
precipitation on standing [2]: precipitation
ROS formation, fold (SUM-149 cells [3]; EP 20 μM, vs vehicle): 4 fold
reduction in ROS formation in the presence of NAC (SUM-149 cells [3]; NAC 500 μM): about 20%
EC50 (MDA-MB-231): 18 µM
increase in percentage of cells in G1 phase (SUM-149 cells [4]): ~20%
reduction of the percentage of cells in G2/M (SUM-149 cells [4]): 10%
EC50 (SUM-190 IBC cells): 43 µM
EC50 (HMEC): > 20 µM
concentration at which SUM-149 cell viability is significantly reduced (SUM-149 cells [5]; 72 h): 8 µM
EC50 (SUM-149 cells [5]; SUM149, 24 h): 34 µM
EC50 (SUM-149 cells [5]; SUM149, 72 h): 20 µM
EC50 (SUM-149): 6 µM
EC50 (T47D): 19 µM
reaction of the endoperoxide with NAC [6]: no observable olefin migration or opening of the endoperoxide was detected
ROS formation, fold (MDA-MB-231 cells): 2 fold
solubility properties (in words) (Solubility observations): poor
EC50 [7]: 7 to 22 µM
AKT2 levels ([8]; SUM-149): decreases
AKT3 levels ([8]; SUM-149): not affecting
expression of BCL-XL ([8]; SUM-149): significantly reduces
expression of Cyclin D1 ([8]; SUM-149): significantly reduces
expression of c-Myc ([8]; SUM-149): significantly reduces
expression of p-AKT1 (Ser 473) ([8]; SUM-149): significantly decreases
p-AKT2 ([8]; SUM-149): without affecting
total AKT1 levels ([8]; SUM-149): decreases
PARP cleavage ([8]; SUM-149, 24 h, EP 30 μM): induces PARP cleavage
total PARP levels ([8]; SUM-149, 24 h, EP 30 μM): significantly reduces
